Source: ChEMBL document CHEMBL3600385 (Bioorg Med Chem Lett, 2015)
The source made the active and inactive calls. No cut-off for these calls is given here.

Experiments:
[1] = molecular target: T1, Neuronal acetylcholine receptor subunit alpha-7 (Rattus norvegicus, UniProt Q05941); assay: (§1) Antagonist activity at rat alpha-7 nicotinic acetylcholine receptor expressed in Xenopus oocytes assessed as inhibition of acetylcholine-induced currents preincubated for 10 mins followed by nicotine induction by two-electrode voltage-clamp electrophysiology assay; format: cell-based
[2] = molecular target: Neuronal acetylcholine receptor subunit alpha-7 (Rattus norvegicus) (UniProt Q05941); assay: as §1, with “of nicotine-induced current amplitudes at IC50 for” for “of”, “assay relative to control” for “assay”; format: cell-based
[3] = molecular target: Neuronal acetylcholine receptor subunit alpha-7 (Rattus norvegicus) (UniProt Q05941)
[4] = molecular target: Neuronal acetylcholine receptor subunit alpha-7 (Rattus norvegicus) (UniProt Q05941); assay: Agonist activity at rat alpha-7 nicotinic acetylcholine receptor expressed in Xenopus oocytes assessed as ratio of maximum response to compound to that induced by 1 mM acetylcholine at 1 mM treated for 3 to 4 secs followed by compound washout for 4 mins by two-electrode voltage-clamp electrophysiology assay; format: cell-based
[5] = molecular target: T1, Neuronal acetylcholine receptor subunit alpha-7

T1 sequence (Q05941 whole entry): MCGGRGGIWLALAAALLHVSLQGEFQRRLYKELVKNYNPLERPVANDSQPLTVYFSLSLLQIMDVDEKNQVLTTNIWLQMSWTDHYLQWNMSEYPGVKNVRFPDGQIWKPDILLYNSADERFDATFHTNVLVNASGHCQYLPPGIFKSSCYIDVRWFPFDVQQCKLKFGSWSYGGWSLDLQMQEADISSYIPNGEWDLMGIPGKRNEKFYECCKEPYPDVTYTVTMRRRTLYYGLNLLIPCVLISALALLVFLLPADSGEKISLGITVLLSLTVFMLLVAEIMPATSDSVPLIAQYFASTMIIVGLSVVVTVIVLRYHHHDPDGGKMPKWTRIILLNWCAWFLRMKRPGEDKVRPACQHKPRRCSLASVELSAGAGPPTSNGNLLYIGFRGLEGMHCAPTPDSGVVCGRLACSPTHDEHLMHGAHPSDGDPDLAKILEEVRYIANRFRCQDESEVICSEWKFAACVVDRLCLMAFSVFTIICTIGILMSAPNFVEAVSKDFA
Neuronal acetylcholine receptor subunit alpha-7 (Rattus norvegicus), sequence (Q05941 whole entry): as above

O=C(N[C@@H]1C[N+]2(CCl)CCC1CC2)c1ccccc1F
IC50 [1]: 39.3 µM
inhibition [2]: 33.2%
pEC50 [3]: inactive

O=C(NC1CN2CCC1CC2)c1ccccc1F (stereo not drawn)
Ratio [4]: 0.19
IC50 [1]: 8.07 µM
inhibition [2]: 26.5%
EC50 [5]: 56.5 µM

O=C(N[C@H]1C[N+]2(CCl)CCC1CC2)c1ccccc1F
Ratio [4]: 0.021
IC50 [1]: 28.4 µM
inhibition [2]: 65.7%

COc1cc(N)c(Cl)cc1C(=O)NC1CN2CCC1CC2 (stereo not drawn) [ZACOPRIDE]
Ratio [4]: 0.038
IC50 [1]: 7.04 µM
inhibition [2]: 4.37%
